Results taken from ChEMBL document CHEMBL1146648, “Development of l-3-aminotyrosine suitably protected for the synthesis of a novel nonphosphorylated hexapeptide with low-nanomolar Grb2-SH2 domain-binding affinity” (Bioorg Med Chem Lett, 2004).
pIC50: −log10 of the molar value. Where a SMILES comes first, the peptide text is derived from it. Bridges are numbered along the chain shown (N, C = ends). [ ]: non-standard residue; d: D form. Tyr(3-NH2) = Nc1cc(C[C@H](N)C(=O)O)ccc1O; Gla = N[C@@H](CC(C(=O)O)C(=O)O)C(=O)O; Aad = N[C@@H](CCCC(=O)O)C(=O)O; Ac6c = NC1(C(=O)O)CCCCC1; Ava = NCCCCC(=O)O

Biological target: Growth factor receptor-bound protein 2 (Homo sapiens, UniProt P62993)
Experiment: Competitive binding affinity against Growth factor receptor bound protein 2 was assessed using SHC(pTyr-317) phospopeptide in biacore surface plasmon resonance (SPR) method

| Compound | pIC50 |
| --- | --- |
| CC(C)C[C@@H]1NC(=O)[C@H](CCCC(=O)O)NC(=O)C[S+]([O-])C[C@H](C(N)=O)NC(=O)CCCCNC(=O)[C@H](C(C)C)NC(=O)[C@H](CC(N)=O)NC(=O)C2(CCCCC2)NC(=O)[C@H](Cc2ccc(O)cc2)NC1=O (stereo partly specified) | 4.07 |
| CC(C)C[C@@H]1NC(=O)[C@H](CC(C(=O)O)C(=O)O)NC(=O)CSC[C@@H](C(N)=O)NC(=O)CCCCNC(=O)[C@H](C(C)C)NC(=O)[C@H](CC(N)=O)NC(=O)C2(CCCCC2)NC(=O)[C@H](Cc2ccc(O)c(N)c2)NC1=O ({CH2CO}-[Gla]L[Tyr(3-NH2)][Ac6c]NV[Ava]C-NH2; thioether N-8) | 6.80 |
| CC(C)C[C@@H]1NC(=O)[C@H](CC(C(=O)O)C(=O)O)NC(=O)C[S+]([O-])C[C@H](C(N)=O)NC(=O)CCCCNC(=O)[C@H](C(C)C)NC(=O)[C@H](CC(N)=O)NC(=O)C2(CCCCC2)NC(=O)[C@H](Cc2ccc(O)c(N)c2)NC1=O (stereo partly specified) | 5.97 |
| CC(C)C[C@@H]1NC(=O)[C@H](CCCC(=O)O)NC(=O)CSC[C@@H](C(N)=O)NC(=O)CCCCNC(=O)[C@H](C(C)C)NC(=O)[C@H](CC(N)=O)NC(=O)C2(CCCCC2)NC(=O)[C@H](Cc2ccc(O)cc2)NC1=O ({CH2CO}-[Aad]LY[Ac6c]NV[Ava]C-NH2; thioether N-8) | 4.94 |

The remaining compounds from weak to strong by pIC50, led by results:

| pIC50 | Compound |
| --- | --- |
| 5.01 | CC(C)C[C@@H]1NC(=O)[C@H](CCCC(=O)O)NC(=O)C[S+]([O-])C[C@@H](C(N)=O)NC(=O)CCCCNC(=O)[C@H](C(C)C)NC(=O)[C@H](CC(N)=O)NC(=O)C2(CCCCC2)NC(=O)[C@H](Cc2ccc(O)cc2)NC1=O (stereo partly specified) |
| 7.30 | CC(C)C[C@@H]1NC(=O)[C@H](CC(C(=O)O)C(=O)O)NC(=O)C[S+]([O-])C[C@@H](C(N)=O)NC(=O)CCCCNC(=O)[C@H](C(C)C)NC(=O)[C@H](CC(N)=O)NC(=O)C2(CCCCC2)NC(=O)[C@H](Cc2ccc(O)c(N)c2)NC1=O (stereo partly specified) |
